Test system: D. melanogaster nAChRs
Assay: Comparison of agonist activity between nAChRs expressed in X. laevis oocytes (one-way ANOVA, Kruskal-Wallis);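 on Difference of Imax values: Imax relative to maximal plateau response to ACh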
Format: cell-based
Procedure: We minimised the use of X. laevis according to the UK Animals (Scientific Procedures) Act, 1986. […] Oocytes were defolliculated after collagenase treatment in Ca^2+-free standard oocyte saline (Ca^2+-free SOS). cRNAs of the nAChR subunits and co-factors mixed at a concentration of 0.1 mg/mL was injected into oocytes at a volume of 50 nL. Then the oocytes were incubated in the incubation medium (SOS supplemented with sodium pyruvate (Nacalai Tesque, #13058–12), penicillin-streptomycin (MilliporeSigma, #P4333), gentamycin (Nacalai Tesque, #16672–04), and 4% horse serum (Thermo Fisher Scientific, #26050–070) for 3−4 days prior to electrophysiology.
Each defolliculated X. laevis oocyte was secured in a Perspex recording chamber and perfused with the standard oocyte saline (SOS) containing 0.5 μM atropine (SOSA) at a flow rate of 7−10 mL/min [48]. Two glass electrodes filled with 2 M KCl were impaled into each oocyte and the membrane potential was clamped at -100 mV. […] The peak amplitude of the response was measured and analysed by pCLAMP (Molecular Devices, USA).
Y=Imax/1+10^(logEC50‐X)nH
Where Y is the normalised response, X is log[ligand (M)], EC50 is the half maximal concentration (M), Imax is the maximum normalised response and nH is the Hill coefficient.
Prism software was employed for the statistical analyses. […] One-way ANOVA was used to analyse the differences of the ligand agonist activity in terms of pEC50 on the various nAChRs expressed in X. laevis as well as data obtained with D. melanogaster larvae and adults.

[1] = Dα1/Dα2/Dα3/Dβ1 vs. Dα1/Dα2/Dα3/Dβ1/Dβ2
[2] = Dα1/Dα2/Dα3/Dβ1 vs. Dα1/Dα2/Dβ1/Dβ2
[3] = Dα1/Dα2/Dα3/Dβ1 vs. Dα1/Dα3/Dβ1/Dβ2
[4] = Dα1/Dα2/Dα3/Dβ1 vs. Dα1/Dβ1/Dβ2
[5] = Dα1/Dα2/Dα3/Dβ1 vs. Dα2/Dα3/Dβ1/Dβ2
[6] = Dα1/Dα2/Dα3/Dβ1 vs. Dα3/Dβ1/Dβ2
[7] = Dα1/Dα2/Dβ1/Dβ2 vs. Dα1/Dα2/Dα3/Dβ1/Dβ2
[8] = Dα1/Dα2/Dβ1/Dβ2 vs. Dα2/Dα3/Dβ1/Dβ2
[9] = Dα1/Dα2/Dβ1 vs. Dα1/Dα2/Dα3/Dβ1
[10] = Dα1/Dα2/Dβ1 vs. Dα1/Dα2/Dα3/Dβ1/Dβ2
[11] = Dα1/Dα2/Dβ1 vs. Dα1/Dα2/Dβ1/Dβ2
[12] = Dα1/Dα2/Dβ1 vs. Dα1/Dα3/Dβ1/Dβ2
[13] = Dα1/Dα2/Dβ1 vs. Dα2/Dα3/Dβ1/Dβ2
[14] = Dα1/Dα3/Dβ1/Dβ2 vs. Dα1/Dα2/Dα3/Dβ1/Dβ2
[15] = Dα1/Dα3/Dβ1/Dβ2 vs. Dα1/Dα2/Dβ1/Dβ2
[16] = Dα1/Dα3/Dβ1/Dβ2 vs. Dα2/Dα3/Dβ1/Dβ2
[17] = Dα1/Dα3/Dβ1 vs. Dα1/Dα2/Dα3/Dβ1
[18] = Dα1/Dα3/Dβ1 vs. Dα1/Dα2/Dα3/Dβ1/Dβ2
[19] = Dα1/Dα3/Dβ1 vs. Dα1/Dα2/Dβ1/Dβ2
[20] = Dα1/Dα3/Dβ1 vs. Dα1/Dα3/Dβ1/Dβ2
[21] = Dα1/Dα3/Dβ1 vs. Dα2/Dα3/Dβ1/Dβ2
[22] = Dα1/Dβ1/Dβ2 vs. Dα1/Dα2/Dα3/Dβ1/Dβ2
[23] = Dα1/Dβ1/Dβ2 vs. Dα1/Dα2/Dβ1/Dβ2
[24] = Dα1/Dβ1/Dβ2 vs. Dα1/Dα3/Dβ1/Dβ2

N#C/N=C1\SCCN1Cc1ccc(Cl)nc1 [Thiacloprid, thiacloprid]
Difference of pEC50 values, nAChRs compared (Dα1/Dα2/Dα3/Dβ1/Dβ2 vs. Dα1/Dα2/Dα4/Dβ1/Dβ2): 0.17 | Difference of pEC50 values, nAChRs compared (Dα1/Dα2/Dα3/Dβ1/Dβ2 vs. Dα1/Dα2/Dβ1/Dβ2/Dβ3): -0.53 | Difference of pEC50 values, nAChRs compared (Dα1/Dα2/Dα3/Dβ1/Dβ2 vs. Dα1/Dα3/Dα4/Dβ1/Dβ2): -0.78 | Difference of pEC50 values, nAChRs compared (Dα1/Dα2/Dα3/Dβ1/Dβ2 vs. Dα1/Dα3/Dβ1/Dβ2/Dβ3): -1.45 | Difference of pEC50 values, nAChRs compared (Dα1/Dα2/Dα3/Dβ1/Dβ2 vs. Dα2/Dα3/Dα4/Dβ1/Dβ2): -0.81 | Difference of pEC50 values, nAChRs compared (Dα1/Dα2/Dα3/Dβ1/Dβ2 vs. Dα2/Dα3/Dβ1/Dβ2/Dβ3): -1.13 | Difference of Imax values [1]: -0.012 | Difference of pEC50 values [1]: 0.55 | Difference of Imax values [2]: -0.027 | Difference of pEC50 values [2]: 0.63 | Difference of Imax values [3]: -0.060 | Difference of pEC50 values [3]: -0.27 | Difference of Imax values [4]: 0.004 | Difference of pEC50 values [4]: -0.13 | Difference of Imax values [5]: 0.030 | Difference of pEC50 values [5]: -0.35 | Difference of Imax values [6]: 0.025 | Difference of pEC50 values [6]: -0.59 | Difference of Imax values [7]: 0.015 | Difference of pEC50 values [7]: -0.08 | Difference of Imax values [8]: 0.057 | Difference of pEC50 values [8]: -0.98 | Difference of Imax values [9]: -0.022 | Difference of pEC50 values [9]: -0.81 | Difference of Imax values [10]: -0.034 | Difference of pEC50 values [10]: -0.26 | Difference of Imax values [11]: -0.049 | Difference of pEC50 values [11]: -0.18 | Difference of Imax values [12]: -0.082 | Difference of pEC50 values [12]: -1.08 | Difference of Imax values (Dα1/Dα2/Dβ1 vs. Dα1/Dβ1/Dβ2): -0.018 | Difference of pEC50 values (Dα1/Dα2/Dβ1 vs. Dα1/Dβ1/Dβ2): -0.94 | Difference of Imax values (Dα1/Dα2/Dβ1 vs. Dα2/Dα3/Dβ1): -0.020 | Difference of pEC50 values (Dα1/Dα2/Dβ1 vs. Dα2/Dα3/Dβ1): 0.00 | Difference of Imax values [13]: 0.008 | Difference of pEC50 values [13]: -1.16 | Difference of Imax values (Dα1/Dα2/Dβ1 vs. Dα3/Dβ1/Dβ2): 0.003 | Difference of pEC50 values (Dα1/Dα2/Dβ1 vs. Dα3/Dβ1/Dβ2): -1.40 | Difference of Imax values [14]: 0.048 | Difference of pEC50 values [14]: 0.82 | Difference of Imax values [15]: 0.033 | Difference of pEC50 values [15]: 0.90 | Difference of Imax values [16]: 0.090 | Difference of pEC50 values [16]: -0.08 | Difference of Imax values [17]: 0.000 | Difference of pEC50 values [17]: 0.34 | Difference of Imax values [18]: -0.012 | Difference of pEC50 values [18]: 0.89 | Difference of Imax values (Dα1/Dα3/Dβ1 vs. Dα1/Dα2/Dβ1): 0.022 | Difference of pEC50 values (Dα1/Dα3/Dβ1 vs. Dα1/Dα2/Dβ1): 1.15 | Difference of Imax values [19]: -0.027 | Difference of pEC50 values [19]: 0.97 | Difference of Imax values [20]: -0.060 | Difference of pEC50 values [20]: 0.07 | Difference of Imax values (Dα1/Dα3/Dβ1 vs. Dα1/Dβ1/Dβ2): 0.004 | Difference of pEC50 values (Dα1/Dα3/Dβ1 vs. Dα1/Dβ1/Dβ2): 0.21 | Difference of Imax values (Dα1/Dα3/Dβ1 vs. Dα2/Dα3/Dβ1): 0.002 | Difference of pEC50 values (Dα1/Dα3/Dβ1 vs. Dα2/Dα3/Dβ1): 1.15 | Difference of Imax values [21]: 0.030 | Difference of pEC50 values [21]: -0.01 | Difference of Imax values (Dα1/Dα3/Dβ1 vs. Dα3/Dβ1/Dβ2): 0.025 | Difference of pEC50 values (Dα1/Dα3/Dβ1 vs. Dα3/Dβ1/Dβ2): -0.25 | Difference of Imax values [22]: -0.016 | Difference of pEC50 values [22]: 0.68 | Difference of Imax values [23]: -0.031 | Difference of pEC50 values [23]: 0.76 | Difference of Imax values [24]: -0.064 | Difference of pEC50 values [24]: -0.14 | Difference of Imax values (Dα1/Dβ1/Dβ2 vs. Dα2/Dα3/Dβ1/Dβ2): 0.026
